Test results reported in patent publication US20110183958A1, “AZETIDINE DERIVATIVES AS INHIBITORS OF STEAROYL-COENZYME A DELTA-9 DESATURASE” (Merck Frosst Canada Ltd., priority 2008, published 2011).
pIC50: −log10 of the molar value.

target: T1, human SCD1 (hSCD-1) (Homo sapiens, UniProt O00767); test: SCD enzyme activity assay with reconstituted human SCD1 (hSCD-1); type: biochemical
T1 construct: made in house; host or cells: baculovirus/Sf9
T1 sequence (O00767 1-359): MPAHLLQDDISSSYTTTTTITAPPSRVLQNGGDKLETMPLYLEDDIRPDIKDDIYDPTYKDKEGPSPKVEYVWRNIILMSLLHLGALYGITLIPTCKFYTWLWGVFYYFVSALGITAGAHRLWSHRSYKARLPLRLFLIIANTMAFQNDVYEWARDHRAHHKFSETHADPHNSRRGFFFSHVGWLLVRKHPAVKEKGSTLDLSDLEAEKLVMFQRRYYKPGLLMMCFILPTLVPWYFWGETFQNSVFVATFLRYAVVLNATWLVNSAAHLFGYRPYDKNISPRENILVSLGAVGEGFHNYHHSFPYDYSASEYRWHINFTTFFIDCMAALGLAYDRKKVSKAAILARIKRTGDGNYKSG
Method: I. SCD Enzyme Activity Assay:
The potency of compounds of formula I against the stearoyl-CoA desaturase was determined by measuring the conversion of radiolabeled stearoyl-CoA to oleoyl-CoA using rat liver microsome or human SCD1 (hSCD-1) following previously published procedures with some modifications (Joshi, et al., J. Lipid Res., 18: 32-36 (1977); Talamo, et al., Anal. Biochem, 29: 300-304 (1969)). Liver microsome was prepared from male Wistar or Sprague Dawley rats on a high carbohydrate diet for 3 days (LabDiet # 5803, Purina). The livers were homogenized (1:10 w/v) in a buffer containing 250 mM sucrose, 1 mM EDTA, 5 mM DTT and 50 mM Tris-HCl (pH 7.5). After a 100,000×g centrifugation for […], the liver microsome pellet was suspended in a buffer containing 100 mM sodium phosphate, 20% glycerol, 2 mM DTT, and stored at −78° C. Human SCD1 desaturase system was reconstituted using human SCD1 from a baculovirus/Sf9 expression system, cytochrome B5 and cytochrome B5 reductase. Typically, test compound in 2 μL DMSO was incubated for 15 min at room temperature with 180 μL of the SCD enzyme in a buffer containing 100 mM Tris-HCl (pH 7.5), ATP (5 mM), Coenzyme-A (0.1 mM), Triton X-100 (0.5 mM) and NADH (2 mM). The reaction was initiated by the addition of 20 μL of [^3H]-stearoyl-CoA (final concentration=2 μM, radioactivity concentration=1 μCi/mL). After 10 min, the reaction mixture (80 μL) was mixed with a calcium chloride/charcoal aqueous suspension (100 μL, charcoal (10% w/v) plus 25 μL, CaCl2 (2N). After centrifugation to precipitate the radioactive fatty acid species, tritiated water released from 9,10-[^3H]-stearoyl-CoA by the SCD enzyme was quantified on a scintillation counter.

Row | Compound | pIC50
1 | CS(=O)(=O)c1ccc(NC(=O)c2cnc(N3CC(Oc4cc(F)ccc4Br)C3)cn2)cc1 | 7.96
2 | O=C(Nc1ccc(-c2cc[nH]n2)cc1)c1cnc(N2CC(Oc3cc(F)ccc3Br)C2)cn1 | 7.80
3 | O=C(Nc1ccc2ccccc2c1)c1cnc(N2CC(Oc3cc(F)ccc3Br)C2)cn1 | 7.64
4 | O=C(O)CCc1ccc(NC(=O)c2cnc(N3CC(Oc4cc(F)ccc4Br)C3)cn2)cc1 | 7.35
5 | CNC(=O)c1cnc(N2CC(Oc3cc(F)ccc3Br)C2)cn1 | 7.35

Now from value to compound:

Row | pIC50 | Compound
6 | 7.54 | O=C(Nc1ccccc1)c1cnc(N2CC(Oc3cc(F)ccc3Br)C2)cn1
7 | 7.62 | O=C(Nc1ccsc1)c1cnc(N2CC(Oc3cc(F)ccc3Br)C2)cn1
8 | 8.05 | COc1ccc(NC(=O)c2cnc(N3CC(Oc4cc(F)ccc4Br)C3)cn2)cc1
